# US5663172A, “Preventive agent for platelet aggregation” (Nippon Soda Co., Ltd., priority 1992, dated 1997)
# Like-named read-outs stand apart in the source and are kept apart here.
# Assays:
# [1] = tested on: Left Cardiac Ventricle (dp/dt max), heart rate, blood pressure; test: Cardiotonic effect in anesthetized Beagle dogs (dp/dt max, heart rate, blood pressure); format: in vivo; details: for ED50: Canis lupus familiaris, cumulative 0.001 to 0.3 mg/0.1 ml/Kg, read-out: ED50 for dp/dt max in Left Cardiac Ventricle (dose attaining 50% increase)
# Protocol: Male and female Beagle dogs in a weight range of from 10 to 15 Kg were anesthetized to provide them for the test. The dogs were anesthetized by intravenous injection with sodium pentobarbital at a dose of […], and the anesthetized condition was maintained by subsequent intravenous injection with sodium pentobarbital at a dose of 4 mg/Kg/hr. A cannula for drip infusion either of physiological saline solution or anesthetic injection was inserted into a femoral vein, and a cannula for measuring arterial blood pressure was inserted into a femoral artery via a pressure transducer. Heart rate was recorded by conducting R-wave of the electrocardiogram (ECG) to a heart beat counter. Secondary induction from electrocardiogram was measured via a bioelectricity-adapted amplifier. Internal pressure of left cardiac ventricle was measured by inserting a catheter-type pressure transducer from a left carotid into left cardiac ventricle. Differential values by time of the internal pressure in left cardiac ventricle (dp/dt max) were measured by conducting the internal pressure in left cardiac ventricle to a derivative amplifier. The test compound was cummulatively administrated at a rate of from 0.001 to 0.3 mg/0.1 ml/Kg though a cannula inserted into a femoral vein. Based on a dose-response curve obtained, ED50, a dose attaining 50% increase of the dp/dt max in left cardiac ventricle, was determined.
# [2] = tested on: platelet aggregation (rabbit platelet rich plasma); test: Preventive effect on platelet aggregation in vitro (aggregometer; rabbit platelet rich plasma; ADP or collagen induced); format: cell-based, rabbits; details: for EC50: Oryctolagus cuniculus, Platelet, rabbit PRP
# Protocol: Preventive Effect on Platelet Aggregation The preventive effect on platelet aggregation of the compounds and the complexes of the present invention was evaluated in vitro based on the preventive effect on the platelet aggregation induced by adenosine diphosphate (ADP) and collagen, which is determined by using an aggregometer, Hematracer PAT-606 produced by Nicho Bioscience Co., Ltd. Blood collected from rabbits containing 0.38% citric acid was centrifuged at 1100 rpm for 15 min. to obtain platelet rich plasm (PRP). The PRP obtained was then centrifuged at 3500 rpm for 10 min., and the supernatant obtained was provided as platelet poor plasma (PPP). PRP was diluted with PPP to adjust the concentration of platelets in PRP to a range of from 2×10^8 /ml to 5×10^8 ml. .left brkt-top.Either ADP at the final concentration of 10 μM or collagen at the final concentration of 20 μg/ml, which was prepared with SKF buffer solution (Collagen reagent Horm, Hormon Chemie) was used for the induction of platelet aggregation. .right brkt-bot. Test compound was dissolved into dimethyl sulfoxide (DMSO), then 0.5 ml of PRP prepared as described above was added to 0.5 μl of the solution, then mixed for about 3 min. Then, 0.2 ml portion was taken out of the mixture, and either ADP solution or collagen solution in an amount of 22 μl was added thereto to proceed to the measurement of platelet aggregation for 10 min. by using an aggregometer. The preventive effect on platelet aggregation was determined in the prevention rate (%) in respect to the aggregation rate in the check plot. The rate of prevention onto platelet aggregation was calculated according to the following equation. Platelet Aggregation Prevention Rate (%)=(Maximum Aggregation Rate(%) of Platelet when only DMSO is added-Maximum Aggregation Rate(%) of Platelet when Test Compound and DMSO are added).div.Maximum Aggregation Rate(%) of Platelet when only DMSO is added Based on the dose-response curve obtained according to the equation described above, EC50, a dose attaining 50% prevention of platelet aggregation, was determined.
# [3] = target: T1, Cyclic guanosine monophosphate inhibiting-type cyclic adenosine monophosphate phosphodiesterase (cAMP-PDE) (Canis lupus familiaris, UniProt A0A8I3NYE0); test: Inhibitory effect on phosphodiesterase (cGMP inhibiting-type cAMP-PDE from canine platelets); format: biochemical; details: for IC50: canine platelets, 1 μM [3H]-cAMP
# T1 construct: derived from canine platelets was prepared according to the method of Thompson et. al; from tissue; host or cells: canine platelets (DEAE-cellulose fraction)
# T1 sequence (A0A8I3NYE0 1-1135): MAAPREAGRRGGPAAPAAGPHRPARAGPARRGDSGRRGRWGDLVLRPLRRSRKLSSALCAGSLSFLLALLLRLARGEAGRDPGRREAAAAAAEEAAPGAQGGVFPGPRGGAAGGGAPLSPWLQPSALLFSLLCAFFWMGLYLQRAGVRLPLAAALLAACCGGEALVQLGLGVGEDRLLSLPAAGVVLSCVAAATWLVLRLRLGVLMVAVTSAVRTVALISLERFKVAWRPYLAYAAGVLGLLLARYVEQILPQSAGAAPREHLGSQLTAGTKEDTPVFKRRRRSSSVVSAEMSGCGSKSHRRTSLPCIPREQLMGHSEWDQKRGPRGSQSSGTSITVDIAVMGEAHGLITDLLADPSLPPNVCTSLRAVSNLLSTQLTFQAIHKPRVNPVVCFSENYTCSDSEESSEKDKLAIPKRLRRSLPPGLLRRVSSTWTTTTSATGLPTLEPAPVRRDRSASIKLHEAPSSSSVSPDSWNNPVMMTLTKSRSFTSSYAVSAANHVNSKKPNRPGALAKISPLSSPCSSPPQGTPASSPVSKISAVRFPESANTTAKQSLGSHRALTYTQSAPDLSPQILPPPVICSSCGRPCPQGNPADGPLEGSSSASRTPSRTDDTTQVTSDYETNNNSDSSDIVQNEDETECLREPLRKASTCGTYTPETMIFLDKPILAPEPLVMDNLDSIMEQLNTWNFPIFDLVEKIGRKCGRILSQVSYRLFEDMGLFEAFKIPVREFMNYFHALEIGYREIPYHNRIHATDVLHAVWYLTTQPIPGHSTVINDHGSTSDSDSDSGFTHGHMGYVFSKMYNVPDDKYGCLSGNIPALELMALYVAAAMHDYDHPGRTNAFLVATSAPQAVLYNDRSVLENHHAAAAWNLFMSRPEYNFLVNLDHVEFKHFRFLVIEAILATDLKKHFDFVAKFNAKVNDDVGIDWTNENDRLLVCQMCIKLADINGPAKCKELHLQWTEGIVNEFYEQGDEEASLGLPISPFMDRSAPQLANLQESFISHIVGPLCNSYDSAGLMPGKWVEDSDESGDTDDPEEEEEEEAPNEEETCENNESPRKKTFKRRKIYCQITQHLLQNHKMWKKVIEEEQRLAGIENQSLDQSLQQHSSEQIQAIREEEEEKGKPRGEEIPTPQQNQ
# [4] = tested on: Mice; test: Preventive effect on thrombus-causing death (collagen + epinephylline i.v. in mice); format: in vivo; details: for ED50: Mus musculus, po, 0.5 h, read-out: ED50 for preventing Thrombus-causing Death
# Protocol: Preventive Effect on Thrombus-causing Death
# Mice in a state without feeding for a night were orally administrated with a test compound, and then injected intravenously with collagen in an amount of 400 μg/Kg and epinephylline in an amount of 50 μg/Kg through their tail at a fixed speed in accordance with the method of DiMinno and Silver (DiMinno, G. and Silver, M. J., J. Pharmacol. Exp. Thor., 225, 57-60, 1983). After 30 min., the mice were checked to determine their survival rate and to calculate EC50, a dose attaining 50% prevention of the death of the mice. The collagen and epinephylline were used in a form of a mixed solution prepared with SKF buffer solution and saline, respectively. Test compounds were administrated to mice after preparing each suspensions of the compounds in 1% aqueous solution of gum arabic.
# [5] = tested on: Left Cardiac Ventricle (dp/dt max), heart rate, blood pressure; test: Cardiotonic effect in anesthetized Beagle dogs (dp/dt max, heart rate, blood pressure); format: in vivo; details: i.v. at 0.3 mg/kg (footnote *)
# [6] = i.v., anesthetized Beagle dogs, dose not stated
# [7] = ADP at final concentration 10 μM, read-out: EC50 for Platelet Aggregation Prevention, ADP
# [8] = collagen at final concentration 20 μg/ml, read-out: EC50 for Platelet Aggregation Prevention, Collagen
SMILES,"ED50 ([1]; iv, anesthetized Beagle dogs) [mg/kg]","% Change in Blood pressure [1, 6] [%]","% Change in Heart Rate [1, 6] [%]","EC50 [2, 7] [µM]","EC50 [2, 8] [µM]",IC50 [3] [µM],ED50 [4] [mg/kg],% Change in Blood pressure [5] [%],% Change in Heart Rate [5] [%],% Change in dp/dt max in Left Cardiac Ventricle [5] [%],"% Change in Blood pressure ([1]; dog, in vivo, iv) [%]","% Change in Heart Rate ([1]; dog, in vivo, iv) [%]",Effect in Test Example 4 (cardiotonic effect) compared with compound No. 2 ([1]; in words),Effect in Test Example 1 (platelet aggregation) compared with compound No. 2 ([2]; in words),Effect in Test Example 3 (phosphodiesterase) compared with compound No. 2 ([3]; in words),Effect in Test Example 2 (thrombus-causing death) compared with compound No. 2 ([4]; in words)
CCCC1=C(Nc2ccc(C3=NNC(=O)CC3)cc2)CCC1=O [compound 3],0.1,-10.5,7.5,22.8,12.9,0.37,6.8,–,–,–,–,–,–,–,–,–
"CCCC1=C(Nc2ccc(C3=NNC(=O)CC3)cc2)CCCC1=O [Compound No. 1, 4,5-dihydro-6-[4-[(2-propyl-3-oxo-1-cyclohexenyl)amino]phenyl]-3(2H)-pyridazine]",> 0.3,–,–,29.8,9.3,0.43,5,-8.6,5.2,32,–,–,–,–,–,–
"O=C1CCc2cc(OCCCCc3nnnn3C3CCCCC3)ccc2N1 [Cilostazol, reference compound]",0.2,–,–,10.2,4.3,0.6,300,–,–,–,-2.1,15,–,–,–,–
"CCCC1=C(Nc2ccc(C3=NNC(=O)CC3C)cc2)CCCC1=O (stereo not drawn) [Compound No. 2, 4,5-dihydro-5-methyl-6-[4-[(2-propyl-3-oxo-1-cyclohexenyl)amino]phenyl]-3(2H)-pyridazinone]",0.052,-10.0,9.8,4.5,3.6,0.088,1.7,–,–,–,–,–,as much as the effects given by the compound No. 2,as much as the effects given by the compound No. 2,as much as the effects given by the compound No. 2,as much as the effects given by the compound No. 2
